Assay results taken from ChEMBL document CHEMBL2311533, “Pentacyclic hemiacetal sterol with antifouling and cytotoxic activities from the soft coral Nephthea sp” (Bioorg Med Chem Lett, 2013).
Converted amounts (≈) assume the structure as drawn.

What was measured:
[1] = Toxicity against Bugula neritina larvae
[2] = system: HeLa; assay: Cytotoxicity against human HeLa cells incubated for 48 hrs by MTT assay; type: functional, cell-based
[3] = Antifouling activity against Bugula neritina larvae; type: functional
[4] = Selectivity index, ratio of cytotoxic LC50 to antifouling EC50 in Bugula neritina larvae

## CC(=O)O[C@@H]1O[C@H](CCC(C)C)[C@@H](C)[C@H]2CC[C@H]3[C@@H]4CCC5=CC(=O)C=C[C@]5(C)[C@H]4CC[C@]123
[1]
  LC50: > 25 µg/mL
[2]
  IC50: 10.1 µg/mL (≈ 22.2 µM)
[3]
  EC50: > 25 µg/mL

## CC(=O)O[C@H]1O[C@H](CCC(C)C)[C@@H](C)[C@H]2CC[C@H]3[C@@H]4CCC5=CC(=O)C=C[C@]5(C)[C@H]4CC[C@]123
[1]
  LC50: > 25 µg/mL
[2]
  IC50: 19.6 µg/mL (≈ 43.1 µM)
[3]
  EC50: > 25 µg/mL

## CC(C)CC[C@H]1OC(O)[C@]23CC[C@H]4[C@@H](CCC5=CC(=O)C=C[C@@]54C)[C@@H]2CC[C@@H]3[C@@H]1C (mixture of isomers) [NEPHTHOACETAL]
[1]
  LC50: > 25 µg/mL
[4]
  Selectivity Index: >10
[2]
  IC50: 12.3 µg/mL
[3]
  EC50: 2.5 µg/mL
